Values quoted from earlier work, collected in article PMC8146789, “20-Hydroxyecdysone, from Plant Extracts to Clinical Use: Therapeutic Potential for the Treatment of Neuromuscular, Cardio-Metabolic and Respiratory Diseases” (Biomedicines, 2021).
Like-named read-outs stand apart in the source and are kept apart here.

What was measured:
[1] = test system: myostatin gene expression in C2C12 cells; conditions: cited from earlier work
[2] = test system: ERα; design: method as in PMID 24974955; conditions: ref [54]; cited from earlier work
[3] = test system: C2C12 myotubes; design: method as in PMID 24974955; conditions: E2 1 nM; ref [54]; cited from earlier work
[4] = test system: Erβ; design: method as in PMID 24974955; conditions: ref [54]; cited from earlier work
[5] = humans, ref [132], cited from earlier work
[6] = sheep, ingested; ref [132]; cited from earlier work
[7] = design: method as in PMID 3355591, PMID 2906596; conditions: mice, i.p., ref [123],[125], cited from earlier work
[8] = design: method as in PMID 5719028, PMID 30428419; conditions: ref [154],[155]; cited from earlier work
[9] = rat, in vivo, po; cited from earlier work
[10] = test system: rats; conditions: long-term feeding 0.2–2 g/kg/day, ref [121]; cited from earlier work
[11] = test system: rats; design: method as in ref [121] = [121]; 121. Ogawa S. Nishimoto N. Matsuda H. Pharmacology of ecdysones un vertebrates Invertebrate Endocrinology and Hormonal Heterophylly Burdette W.J. Springer Berlin, Germany 1974 341 344; conditions: ref [121]; cited from earlier work
[12] = test system: mice; conditions: ref Ogawa et al. [121], cited from earlier work

C[C@]12CC[C@@H]3c4ccc(O)cc4CC[C@H]3[C@@H]1CC[C@H]2O [17αE2, 17-epi-estradiol]
myostatin gene expression ([1]; C2C12 cells, ref [113]): inhibit myostatin gene expression in C2C12 cells

C[C@]12CC[C@@H]3c4ccc(O)cc4CC[C@H]3[C@@H]1CC[C@@H]2O [E2, Estradiol, reference compound]
activation of ERE reporter gene [2]: could be activated dose dependently
myostatin gene expression ([1]; C2C12 cells, ref [113]): inhibit myostatin gene expression in a dose-dependent manner
myotube diameter [3]: enhanced myotube diameter
activation of ERE reporter gene [4]: could be activated dose dependently

C[C@]12CC[C@@H]3c4ccc(O)cc4C(=NOCC(=O)O)C[C@H]3[C@@H]1CC[C@@H]2O [E2-CMO, estradiol 6-carboxymethyloxime]
myostatin gene expression ([1]; C2C12 cells, ref [113]): inhibit myostatin gene expression in C2C12 cells like E2

C[C@H]([C@H](O)CCC(C)(C)O)[C@H]1CC[C@@]2(O)C3=CC(=O)[C@@H]4C[C@@H](O)[C@@H](O)C[C@]4(C)[C@H]3CC[C@]12C [E, ecdysone]
time of plasma titre maximum ([5]; ingested): ca. 30 min
effective half-time of elimination from the blood [5]: 4 h
effective half-time of elimination from the urine [5]: 3.1 h
time of plasma titre maximum [6]: ca. 30 min
time to full excretion of radioactivity ([7]; undiluted radiolabelled ecdysone): ≤ 24 h
time until essentially all radioactivity is located in the intestine [7]: 45 to 60 min

CC(=O)[C@H]1CC[C@@]2(O)C3=CC(=O)[C@@H]4C[C@@H](O)[C@@H](O)C[C@]4(C)C3CC[C@]12C (stereo partly shown) [Post, poststerone]
anabolic activity [8]: seem to retain some anabolic activity
bioavailability [9]: ca. 19%

CC(CO)CC[C@@H](O)[C@](C)(O)[C@H]1CC[C@@]2(O)C3=CC(=O)[C@@H]4C[C@@H](O)[C@@H](O)C[C@]4(C)[C@H]3CC[C@]12C (stereo partly shown) [inokosterone]
subacute toxicity [10]: no subacute toxicity was observed
sex hormonal activity, anti-inflammatory or anabolic effects [11]: did not have
LD50 ([12]; i.p.-injected): 7800 mg/kg
LD50 ([12]; ingested): > 9000 mg/kg

C[C@]12C[C@H](O)[C@H](O)C[C@H]1C(=O)C=C1[C@@H]2CC[C@]2(C)C(=O)CC[C@@]12O [rubrosterone]
anabolic activity [8]: seem to retain some anabolic activity

Angiotensin(1-7): natural ligand for the GPCR Mas1 (DRVYIHP; Angiotensin 1-7; UniProt P01019 25-31, looked up)
myostatin gene expression ([1]; C2C12 cells, ref [113]): partially inhibits myostatin gene expression

D-Ala^7-Ang(1-7)
effect on the inhibition of myostatin gene expression by 20E ([1]; C2C12 cells, ref [113]): effective at preventing the inhibition brought about by 20E
effect on the inhibition of myostatin gene expression by Ang(1-7) ([1]; C2C12 cells, ref [113]): abolished

D-Pro^7-Ang(1-7)
effect on the inhibition of myostatin gene expression by 20E ([1]; C2C12 cells, ref [113]): effective at preventing the inhibition brought about by 20E
effect on the inhibition of myostatin gene expression by Ang(1-7) ([1]; C2C12 cells, ref [113]): abolished

IGF-1: insulin-like growth factor-1
myostatin gene expression ([1]; C2C12 myotubes, 6 h treatment, ref [103]): markedly reduces myostatin gene expression
